Experimental findings from patent publication US11672799B2, “1,4-disubstituted pyridazine quinolne analogs there of and methods for treating SMN-deficiency-related conditions” (Novartis AG, priority 2013, dated 2023) are described below.

The structures appear in SMILES notation. Where two headings read alike, the source gives them in different places.

One test relates to SMN2 Full reporter. Description: SMN2 Full reporter gene assay (luciferase) in NSC34 stable line. The class given is cell-based. The conditions noted are these: NSC-34, Biological Example 2, 24 hours, BrightGlo, read-out: SMN Activity (EC50). From the text:
SMN2 Full Reporter Construct:
pSMN2 Splicing Luciferase reporter was constructed according to Zhang et al., (An in vivo reporter system for measuring increased inclusion of exon 7 in SMN2 mRNA: potential therapy of SMA. Gene Ther. 2001 October; 8(20):1532-8) via overlapping PCR. The final PCR fragment containing Exon6-Intron6-Exon7 (with a C insertion before 49T)-Intron7-Exon8-Luciferase was inserted to BamHI and NotI site of pCAG-IRESblast expression vector (Chen et al., Establishment and Maintenance of Genomic Methylation Patterns in Mouse Embryonic Stem Cells by Dnmt3a and Dnmt3b. Mol Cell Biol. 2003 August; 23(16):5594-605).
Human SMN2 exon1-exon6 cDNA were amplified by PCR (Forward primer: […]; reverse primer: […]), and Exon6-Intron6 (Forward primer: […]; reverse primer: […]) were fused by overlap PCR to create Exon1-Intron6 fragment, and was inserted into pSMN2 splicing Luciferase reporter via BamHI and HindIII sites to create pSMN2 exon1-6 splicing reporter. SMN2 promoter 5.1 kb fragment was amplified from human genomic DNA by PCR (Forward primer: […]; reverse primer: […]), and inserted between MluI site and BamHI site (Blunted using DNA blunting kit, Takara, Cat #6025) of pSMN2 exon1-6 splicing reporter to replace chicken β-actin promoter and the human cytomegalovirus immediate early enhancer, to finalize the pSMN2-Full-reporter.
SMN2 Full Reporter Stable Clone in NSC34 Cells:
pSMN2-Full reporter was stably transfected into NSC34 cells using Lipofectamine 2000, which were subsequently selected in blasticidin-containing medium for two weeks. Blasticidin-resistant colonies were screened by Luciferase signal and response to SAHA as well as by RT-PCR for alternative splicing of Exon7.
NSC34 SMN2 Full reporter stable line was cultured in DMEM (Invitrogen, Cat:11965)+10% FBS+7 μg/ml Blasticidin. Cells in culture media without Blasticidin were seeded into a 384-well plate at a density of 6000 cells/well and treated with compounds for 24 hours. Luciferase signal was assessed by BrightGlo assay. Eequal volume of BrightGlo reagent (Promega, Cat #E2620) was added to the cells and incubated for 10 minutes at room temperature. Luminescent signal was read in either BioTek or Envision plate reader.
Reporter gene assay conditions: compound concentration range 3 nM-10 uM.
For orientation: A reporter such as luciferase makes a cellular process visible.

In another test the test system is SMN protein. Description: cellular SMN ELISA (SMN protein elevation) in myoblast cell line from SMNdelta7 mouse model. The class given is cell-based. The gist of the method:
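SMNdelta7 mouse myoblasts were treated with compounds for 24 h (20 nM–10 uM or 100 pM–10 uM), lysed in modified RIPA buffer, and SMN quantified by sandwich ELISA with HRP/TMB read at 450 nm. Values are fold activation over DMSO control and EC50.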
In general terms: An ELISA detects its analyte on a solid surface through an enzyme-linked reagent.

Where [1] appears, read: Biological Example 1, SMN ELISA, SMNdelta7 mouse myoblasts, 24 hours compound treatment.
[2] abbreviates: Biological Example 1, SMN ELISA, SMNdelta7 mouse myoblasts, 24 hours compound treatment, read-out: SMN Activity (EC50).

For orientation: EC50 means the concentration giving half of the maximal effect. For `CC(C)c1cc2cc(O)c(-c3ccc(OC4CC(C)(C)NC(C)(C)C4)nn3)cc2cn1` [Example 36-6, 3-isopropyl-7-(6-((2,2,6,6-tetramethylpiperidin-4-yl)oxy)-pyridazin-3-yl)isoquinolin-6-ol], the concentration for a half-maximal effect (EC50) in the test with SMN2 Full reporter came to 640 nM.

On to `CN(c1ccc(-c2cc3c(=O)n(C)c(=O)n(C)c3cc2O)nn1)C1CC(C)(C)NC(C)(C)C1` [Example 32-1, 7-hydroxy-1,3-dimethyl-6-(6-(methyl(2,2,6,6-tetramethylpiperidin-4-yl)amino)pyridazin-3-yl)quinazoline-2,4(1H,3H)-dione], for which the EC50 in the test on SMN2 Full reporter stood at 133 nM.

`CCn1ccc2cc(O)c(-c3ccc(OC4CC(C)(C)NC(C)(C)C4)nn3)cc2c1=O` [Example 35-2, 2-ethyl-6-hydroxy-7-(6-((2,2,6,6-tetramethylpiperidin-4-yl)oxy)pyridazin-3-yl)isoquinolin-1(2H)-one]: the EC50 in the test with SMN2 Full reporter was found to be 363 nM.

Consider `CN(c1ccc(-c2cc3cnn(C)c3cc2O)nn1)C1CC(C)(C)NC(C)(C)C1` [Example 34-2, 1-methyl-5-(6-(methyl(2,2,6,6-tetramethylpiperidin-4-yl)amino)pyridazin-3-yl)-1H-indazol-6-ol], for which, in the test with SMN2 Full reporter, the EC50 turned out to be 220 nM.

For the molecule `Cc1cc2cc(-c3ccc(N(C)C4CC(C)(C)NC(C)(C)C4)nn3)c(O)cc2c(C#N)n1` [Example 30-1, 7-hydroxy-3-methyl-6-(6-(methyl(2,2,6,6-tetramethylpiperidin-4-yl)amino)pyridazin-3-yl)isoquinoline-1-carbonitrile], the half-maximal effective concentration (EC50) in the test with SMN2 Full reporter turned out to be 30 nM.

With `Cc1cc2cc(O)c(-c3ccc(N(C)C4CC(C)(C)NC(C)(C)C4)nn3)cc2c(C)n1` [Example 29-3, 1,3-dimethyl-7-(6-(methyl(2,2,6,6-tetramethylpiperidin-4-yl)amino)pyridazin-3-yl)isoquinolin-6-ol], the concentration giving a half-maximal response (EC50) with SMN2 Full reporter turned out to be 40 nM.

As for `CCCc1cc2cc(O)c(-c3ccc(OC4CC(C)(C)NC(C)(C)C4)nn3)cc2cn1` [Example 36-5, 3-propyl-7-(6-((2,2,6,6-tetramethylpiperidin-4-yl)oxy)-pyridazin-3-yl)isoquinolin-6-ol], the EC50 in the test with SMN2 Full reporter is 580 nM.

On to `CN(c1ccc(-c2cc3[nH]c(=O)oc3cc2O)nn1)C1CC(C)(C)NC(C)(C)C1` [Example 33-1, 6-hydroxy-5-(6-(methyl(2,2,6,6-tetramethylpiperidin-4-yl)amino)pyridazin-3-yl)benzo[d]oxazol-2(3H)-one], for which, in the test on SMN2 Full reporter, the EC50 turned out to be 3000 nM.

Take `CN(c1ccc(-c2cc3cn(C)nc3cc2O)nn1)C1CC(C)(C)NC(C)(C)C1` [Example 34-1, 2-methyl-5-(6-(methyl(2,2,6,6-tetramethylpiperidin-4-yl)amino)pyridazin-3-yl)-2H-indazol-6-ol]: the EC50 in the test with SMN2 Full reporter worked out at 150 nM.

Regarding `CC(C)c1cc2cc(O)c(-c3ccc(N(C)C4CC(C)(C)NC(C)(C)C4)nn3)cc2cn1` [Example 36-4, 3-isopropyl-7-(6-(methyl(2,2,6,6-tetramethyl-piperidin-4-yl)amino)pyridazin-3-yl)isoquinolin-6-ol], in the test with SMN2 Full reporter, the EC50 was 190 nM.

Regarding `CN(c1ccc(-c2cc3cnc(C4CC4)cc3cc2O)nn1)C1CC(C)(C)NC(C)(C)C1` [Example 36-3, 3-cyclopropyl-7-(6-(methyl(2,2,6,6-tetramethyl-piperidin-4-yl)amino)pyridazin-3-yl)isoquinolin-6-ol], the EC50 in the test on SMN2 Full reporter stood at 30 nM.

On to `Cc1ccc2cc(O)c(-c3ccc(N(C)C4CC(C)(C)NC(C)(C)C4)nn3)cc2n1` [Example 6-2, 2-methyl-7-(6-(methyl(2,2,6,6-tetramethylpiperidin-4-yl)amino)pyridazin-3-yl)quinolin-6-ol], for which the “SMN Activity (fold activation over DMSO control)” value in the test on SMN protein (setting [1]) came to 3.2 fold. For the same molecule, in the test with SMN protein (setting [2]), the EC50 worked out at 4 nM.

In the case of `CN(c1ccc(-c2cc3c(N)nccc3cc2O)nn1)C1CC(C)(C)NC(C)(C)C1` [Example 31-1, 1-amino-7-(6-(methyl(2,2,6,6-tetramethylpiperidin-4-yl)amino)pyridazin-3-yl)isoquinolin-6-ol], the EC50 in the test on SMN2 Full reporter came out at 25 nM.

In the case of `CCc1cnc2cc(O)c(-c3ccc(N(C)C4CC(C)(C)NC(C)(C)C4)nn3)cc2c1` [Example 8-1, 3-ethyl-6-(6-(methyl(2,2,6,6-tetramethylpiperidin-4-yl)amino)pyridazin-3-yl)quinolin-7-ol], in the test with SMN protein (setting [1]), the “SMN Activity (fold activation over DMSO control)” value is reported as 2.9 fold. For the same molecule, in the test on SMN protein (setting [2]), the EC50 came out at 86 nM.

In the case of `CN(c1ccc(-c2cc3c(C4CC4)nccc3cc2O)nn1)C1CC(C)(C)NC(C)(C)C1` [Example 3-5, 1-cyclopropyl-7-(6-(methyl(2,2,6,6-tetramethylpiperidin-4-yl)amino)pyridazin-3-yl)isoquinolin-6-ol], the “SMN Activity (fold activation over DMSO control)” value in the test with SMN protein (setting [1]) is 2.54 fold. In addition, the concentration giving a half-maximal response (EC50) in the test on SMN protein (setting [2]) was found to be 14 nM.

Consider `N#Cc1ccc2cc(-c3ccc(N4CCNCC4)nn3)c(O)cc2n1` [Example 27-2, 7-hydroxy-6-(6-(piperazin-1-yl)pyridazin-3-yl)quinoline-2-carbonitrile], for which, in the test on SMN protein (setting [1]), the “SMN Activity (fold activation over DMSO control)” value was 2.42 fold. In addition, the EC50 in the test with SMN protein (setting [2]) is 395 nM.

`Cc1cc(N2CCCC2)c2cc(-c3ccc(N(C)C4CC(C)(C)NC(C)(C)C4)nn3)c(O)cc2n1` [Example 10-2, 2-methyl-6-(6-(methyl(2,2,6,6-tetramethylpiperidin-4-yl)amino)pyridazin-3-yl)-4-(pyrrolidin-1-yl)quinolin-7-ol]: in the test with SMN protein (setting [1]), the “SMN Activity (fold activation over DMSO control)” value worked out at 2.6 fold. Besides, the EC50 in the test on SMN protein (setting [2]) amounted to 65 nM.

`CN(c1ccc(-c2ccc3ccncc3c2)nn1)C1CC(C)(C)NC(C)(C)C1` [drawing 137 R = H] gave a Fold activation in the test on SMN protein (comparison of unsubstituted, ortho-hydroxy and ortho-alkoxy pyridazines, as in Biological Example 1) of 2.7. For the same molecule, in the test with SMN protein (comparison of unsubstituted, ortho-hydroxy and ortho-alkoxy pyridazines, as in Biological Example 1, read-out: SMN ELISA EC50), the concentration giving a half-maximal response (EC50) was found to be 250 nM.

For the molecule `Cc1cc(N2CCC2)c2cc(-c3ccc(N(C)C4CC(C)(C)NC(C)(C)C4)nn3)c(O)cc2n1` [Example 20-1, 4-(azetidin-1-yl)-2-methyl-6-(6-(methyl(2,2,6,6-tetramethylpiperidin-4-yl)amino)pyridazin-3-yl)quinolin-7-ol], the “SMN Activity (fold activation over DMSO control)” value with SMN protein (setting [1]) was 2.86 fold. For the same molecule, the EC50 in the test on SMN protein (setting [2]) is 84 nM.

For `COC(=O)c1ccc2cc(O)c(-c3ccc(N(C)C4CC(C)(C)NC(C)(C)C4)nn3)cc2n1` [Example 26-7, methyl 6-hydroxy-7-(6-(methyl(2,2,6,6-tetramethylpiperidin-4-yl)amino)pyridazin-3-yl)quinoline-2-carboxylate], the “SMN Activity (fold activation over DMSO control)” value with SMN protein (setting [1]) amounted to 2.64 fold. Besides, in the test on SMN protein (setting [2]), the 50% effective concentration (EC50) came to 17 nM.

`CN(c1ccc(-c2cc3ccnc(C#N)c3cc2O)nn1)C1CC(C)(C)NC(C)(C)C1` [Example 26-1, 7-hydroxy-6-(6-(methyl(2,2,6,6-tetramethylpiperidin-4-yl)amino)pyridazin-3-yl)isoquinoline-1-carbonitrile]: the “SMN Activity (fold activation over DMSO control)” value in the test with SMN protein (setting [1]) was 2.58 fold. Moreover, the EC50 in the test with SMN protein (setting [2]) turned out to be 16 nM.

Consider `Cc1nccc2cc(-c3ccc(N(C)C4CC(C)(C)NC(C)(C)C4)nn3)c(O)cc12` [Example 29-1, 1-methyl-6-(6-(methyl(2,2,6,6-tetramethylpiperidin-4-yl)amino)pyridazin-3-yl)isoquinolin-7-ol], for which the “SMN Activity (fold activation over DMSO control)” value in the test on SMN protein (setting [1]) is on record as 2.96 fold. In addition, the half-maximal effective concentration (EC50) in the test with SMN protein (setting [2]) came out at 14 nM.

With `CN(c1ccc(-c2cc3cnccc3cc2O)nn1)C1CC(C)(C)N(C)C(C)(C)C1` [Example 3-1, 7-(6-(methyl(1,2,2,6,6-pentamethylpiperidin-4-yl)amino)pyridazin-3-yl)isoquinolin-6-ol], the “SMN Activity (fold activation over DMSO control)” value with SMN protein (setting [1]) turned out to be 3.1 fold. Further, the EC50 in the test on SMN protein (setting [2]) was determined as 70 nM.

Take `Cc1ccc2cc(-c3ccc(N(C)C4CC(C)(C)NC(C)(C)C4)nn3)c(O)cc2n1` [Example 2-1, 2-methyl-6-(6-(methyl(2,2,6,6-tetramethylpiperidin-4-yl)amino)pyridazin-3-yl)quinolin-7-ol]: the “SMN Activity (fold activation over DMSO control)” value in the test with SMN protein (setting [1]) was determined as 3.0 fold. The concentration giving a half-maximal response (EC50) with SMN protein (setting [2]) turned out to be 20 nM.
